This is an account of results in PubChem BioAssay (NCI).

Several values for one entry are separate records, joined by “and”; a condition that tells them apart may be missing. Equal entries are not always repeated.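 In this assay, cells in 96-well plates receive the compound at five concentrations for 48 hours. Endpoints are linearly interpolated between the surrounding concentrations. Here, GI50 denotes the concentration required for 50% inhibition of growth. TGI: total growth inhibition.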

Some test systems named below: SF-539 CNS; LOX IMVI melanoma; RXF 393 renal; NCI-H226 lung; NCI-H23 lung; DMS 273 small cell lung; SW-620 colon; MALME-3M melanoma; HOP-62 NSCLC; HCT-116 colon.
Test in all cases: growth of human tumour cells (NCI), 48 h

Consider `Cc1cc(C)c2c(c1C)CN1CN2Cc2c(C)c(C)cc(C)c21`, for which the TGI in the assay with SF-539 CNS is more than 100 µM; with LOX IMVI melanoma it was more than 100 µM; in the assay on RXF 393 renal, 93.8 µM; in the assay with NCI-H226 lung, more than 100 µM; with NCI-H23 lung it was more than 100 µM; with DMS 273 small cell lung, more than 100 µM. Further, the TGI in the assay on SW-620 colon, in the assay with MALME-3M melanoma, in the assay on HOP-62 NSCLC and in the assay with HCT-116 colon was more than 100 µM throughout.
For `COc1ccc(C=O)c(N(C)C(=O)C(C)(C)C)c1`, the TGI in the assay on SF-539 CNS, in the assay with LOX IMVI melanoma, in the assay with RXF 393 renal, in the assay with NCI-H226 lung, in the assay with NCI-H23 lung and with DMS 273 small cell lung was more than 100 µM each time. The TGI in the assay on SW-620 colon, with MALME-3M melanoma, in the assay with HOP-62 NSCLC and in the assay on HCT-116 colon was more than 100 µM each time.
In the case of `C=C1C(=O)C23C(O)C1CCC2C12CO[C@]3(O)[C@@H](O)C1C(C)(C)CCC2O` (stereo partly drawn), the TGI in the assay on SF-539 CNS was determined as 28.2 µM; in the assay with LOX IMVI melanoma, 31.4 µM; in the assay with RXF 393 renal it was 20.6 µM; with NCI-H226 lung, 34.9 µM; in the assay on NCI-H23 lung it was 43.4 µM; in the assay on DMS 273 small cell lung, 28.1 µM. Further, the TGI in the assay on SW-620 colon stood at 23.8 µM; with MALME-3M melanoma it was 17.5 µM; in the assay with HOP-62 NSCLC, 40.5 µM; in the assay with HCT-116 colon it was 15.5 µM.
Regarding `CCN1CCC(O)(c2ccccc2)C(C(=O)c2ccccc2)C1` (stereo not drawn), the TGI in the assay on SF-539 CNS was more than 100 µM; with LOX IMVI melanoma it was more than 31.6 µM; in the assay on RXF 393 renal, 29.7 µM; in the assay on NCI-H226 lung, 99.2 µM; in the assay with NCI-H23 lung it was 97.5 µM; in the assay on DMS 273 small cell lung, more than 100 µM. Besides, the TGI is 38.3 µM with SW-620 colon, 38.4 µM in the assay on MALME-3M melanoma, more than 100 µM in the assay on HOP-62 NSCLC and 31 µM in the assay on HCT-116 colon.
Regarding `CN(C)CC1CCCC(CN(C)C)C1=O` (stereo not drawn), the GI50 in the assay on SF-539 CNS was 11.3 µM and 1.75 µM; in the assay on LOX IMVI melanoma, 3.4 µM and 8.45 µM; in the assay on NCI-H226 lung, 18.6 µM and > 46.5 µM; with NCI-H23 lung, 5.35 µM and 20.7 µM; in the assay with SW-620 colon it was 0.367 µM; in the assay with MALME-3M melanoma it was 0.653 µM and 2.61 µM. The GI50 in the assay with HOP-62 NSCLC is > 73.1 µM and 20.8 µM; with HCT-116 colon, 1.66 µM and 3.36 µM. For the same compound, the TGI is 21.9 µM and 5.78 µM in the assay on SF-539 CNS; 7.09 µM and 30.3 µM in the assay on LOX IMVI melanoma; 3.29 µM and 3.25 µM with RXF 393 renal; 35.6 µM and > 69.2 µM with NCI-H226 lung; 18.5 µM and 43.4 µM in the assay on NCI-H23 lung; 26.8 µM in the assay on DMS 273 small cell lung. Further, the TGI is 0.639 µM and 1.92 µM in the assay with SW-620 colon; 1.61 µM and 6.54 µM with MALME-3M melanoma; > 90.6 µM and 43 µM in the assay with HOP-62 NSCLC; 3.64 µM and 7.98 µM with HCT-116 colon.
`C[CH2][Sn]([CH2]C)([O]C(=O)c1cc(OC)c(OC)c(OC)c1)[O][Sn]([CH2]C)([CH2]C)[O]C(=O)c1cc(OC)c(OC)c(OC)c1`: the GI50 is 27.7 µM in the assay on SF-539 CNS; 18.5 µM in the assay on LOX IMVI melanoma; 12.4 µM with RXF 393 renal; 27.3 µM with NCI-H226 lung; 16.7 µM with NCI-H23 lung; 84.5 µM in the assay on DMS 273 small cell lung. Besides, the GI50 is 19.1 µM in the assay on SW-620 colon, 17.3 µM with MALME-3M melanoma, more than 100 µM in the assay on HOP-62 NSCLC and 68.2 µM with HCT-116 colon. Also, the TGI with SF-539 CNS is 74.9 µM; in the assay on LOX IMVI melanoma it was 33.2 µM; in the assay on RXF 393 renal, 27.9 µM; with NCI-H226 lung, 57.9 µM; in the assay with NCI-H23 lung it was 36.5 µM; in the assay on DMS 273 small cell lung it was more than 100 µM. In addition, the TGI is 34.9 µM in the assay with SW-620 colon, 32.2 µM in the assay with MALME-3M melanoma, more than 100 µM in the assay with HOP-62 NSCLC and more than 100 µM in the assay on HCT-116 colon.
For `COC1C2c3ccccc3C(C#N)(Cc3ccc4c(c32)OCO4)N1C(=O)c1ccccc1` (stereo not drawn), the TGI in the assay on SF-539 CNS is more than 100 µM; in the assay on LOX IMVI melanoma it was more than 100 µM; with RXF 393 renal, more than 100 µM; in the assay on NCI-H226 lung it was 85.9 µM; with NCI-H23 lung it was more than 100 µM; in the assay with DMS 273 small cell lung it was 98.3 µM. Besides, the TGI with SW-620 colon, in the assay with MALME-3M melanoma, in the assay on HOP-62 NSCLC and with HCT-116 colon was more than 100 µM in each case.
Take `Cc1cc2c(C)nn(Cc3ccc(Cl)cc3Cl)c2c(C#N)c1C`: the TGI in the assay with SF-539 CNS, in the assay on LOX IMVI melanoma, in the assay with RXF 393 renal, in the assay with NCI-H226 lung, with NCI-H23 lung and in the assay with DMS 273 small cell lung was more than 100 µM throughout. Besides, the TGI in the assay on SW-620 colon, with MALME-3M melanoma, with HOP-62 NSCLC and with HCT-116 colon was more than 100 µM throughout.
